Measured values: patent EP4745135A1 (Gluetacs Therapeutics (Shanghai) Co., Ltd., priority 2023, dated 2025)
Blank lines part the entries; values can stand above or below the compound they belong to.

Legend:
[1] = tested on: Human colon cancer cell line: SW620; experiment: Tumor cell proliferation inhibition (CellTiter-Meiluncell luminescent cell viability assay); conditions: SW-620, 96 h; for inhibition at 0.01 µM: read-out: Inhibition Rate at 10 nM (%); for inhibition at 0.5 µM: read-out: Inhibition Rate at 500 nM (%)
IKZF3 = molecular target: T1, IKZF3 (Homo sapiens, UniProt Q96SW2+Q9UKT9); experiment: Western blot, degradation of substrate protein in hPBMCs; assay type: cell-based; conditions: 24 hours treatment, compounds at 50 nM and 500 nM (concentration behind the class not stated)
T1 construct: effects of the compounds of the present disclosure on the expression of target proteins in cells; endogenous in cells; host or cells: human PBMCs (Milecell Biotechnologies)

IKZF1 = molecular target: T2, IKZF1 (Homo sapiens, UniProt Q13422+Q96SW2); experiment: as above; assay type: cell-based; conditions: 24 hours treatment, compounds at 50 nM and 500 nM (concentration behind the class not stated)
T2 construct: effects of the compounds of the present disclosure on the expression of target proteins in cells; endogenous in cells; host or cells: human PBMCs (Milecell Biotechnologies)

CK1α = molecular target: T3, CK1α (Homo sapiens, UniProt P48729+Q96SW2); experiment: as above; assay type: cell-based; conditions: 24 hours treatment, compounds at 50 nM and 500 nM (concentration behind the class not stated)
T3 construct: effects of the compounds of the present disclosure on the expression of target proteins in cells; endogenous in cells; host or cells: human PBMCs (Milecell Biotechnologies)

IKZF2 = molecular target: T4, IKZF2 (Homo sapiens, UniProt Q96SW2+Q9UKS7); experiment: as above; assay type: cell-based; conditions: 24 hours treatment, compounds at 50 nM and 500 nM (concentration behind the class not stated)
T4 construct: effects of the compounds of the present disclosure on the expression of target proteins in cells; endogenous in cells; host or cells: human PBMCs (Milecell Biotechnologies)

WEE1 = molecular target: T5, WEE1 (Homo sapiens, UniProt P30291+Q96SW2); experiment: as above; assay type: cell-based; conditions: 24 hours treatment, compounds at 50 nM and 500 nM (concentration behind the class not stated)
T5 construct: effects of the compounds of the present disclosure on the expression of target proteins in cells; endogenous in cells; host or cells: human PBMCs (Milecell Biotechnologies)

[2] = tested on: Human malignant melanoma cell line: A375; experiment: Tumor cell proliferation inhibition (CellTiter-Meiluncell luminescent cell viability assay); conditions: A-375, 96 h; for inhibition at 0.01 µM: read-out: Inhibition Rate at 10 nM (%); for inhibition at 0.5 µM: read-out: Inhibition Rate at 500 nM (%)
[3] = tested on: Human monocytic leukemia cell line: THP-1; experiment: as above; conditions: THP-1, 96 h; for inhibition at 0.01 µM: read-out: Inhibition Rate at 10 nM (%); for inhibition at 0.5 µM: read-out: Inhibition Rate at 500 nM (%)
Method: The tumor cells used herein were cultured in a cell culture medium listed in table 2 at 37°C in an incubator with 5% CO2. Prior to experimentation, all cell lines used were correctly identified by STR profiling, and tested negative for mycoplasma contamination using a mycoplasma detection kit through routine screenings.
The IC50 values of the compounds of the present disclosure (including the compounds in Table 1 and Examples) were determined using the CellTiter-Meiluncell Luminescent Cell Viability Assay Kit from Dalian Meilun Biotech Co., Ltd. The detailed procedure is as follows: Tumor cells were seeded in 96-well cell culture plates at the densities specified in Table 3. On the following day, the test compounds of the present disclosure were subjected to serial dilution. The dilution can be performed according to one of the following two methods: • (1) The first dilution method: The test compounds of the present disclosure (including the compounds in Table 1 and Examples) were subjected to 5-fold serial dilutions starting from a highest concentration of 2000 µM, resulting in a total of 9 concentrations from high to low (2000, 400, 80, 16, 3.2, 0.64, 0.128, 0.0256, 0.00512 µM). Subsequently, 0.5 µL of the test compound dilution was transferred into the 96-well plate containing the cells, with each well containing 100 µL of cell culture medium. […] Into the 96-well plate, the diluted test compounds and corresponding detection reagents were added, resulting in final test compound concentrations of 500 nM and 10 nM, respectively. The experimental procedure is described below using the diluted 2 µM test compound as an example.
0.5 µL of the aforementioned diluted compound of the present disclosure (including the compounds in Table 1 and Examples) was added to the seeded cells in 100 µL of medium, yielding a final test compound concentration of 10 nM. After the cells were treated with the compounds of the present disclosure for a specified period, the cell viability assay reagent was added to the culture medium according to the kit's instructions to determine cell viability. […] All controls were treated using the same procedure as the compounds of the present disclosure. The growth inhibition curves for the compounds of the present disclosure were plotted using Prism GraphPad software, and the IC50 values were calculated therefrom.

[4] = molecular target: T6, human Cereblon WT GST-tagged protein (Homo sapiens, UniProt Q96SW2); experiment: CRBN-binding affinity, HTRF (CEREBLON BINDING kit); conditions: for inhibition at 0.5 µM: read-out: Inhibition Rate at 0.5 µM (%); for inhibition at 2 µM: read-out: Inhibition Rate at 2 µM (%)
T6 construct: purchased CISBIO 64BDCRBNPEH

GSPT1 = experiment: Western blot, degradation of substrate protein in hPBMCs; assay type: cell-based, Human; conditions: 24 hours treatment, compounds at 50 nM and 500 nM (concentration behind the class not stated)

T3 sequence (P48729 whole entry): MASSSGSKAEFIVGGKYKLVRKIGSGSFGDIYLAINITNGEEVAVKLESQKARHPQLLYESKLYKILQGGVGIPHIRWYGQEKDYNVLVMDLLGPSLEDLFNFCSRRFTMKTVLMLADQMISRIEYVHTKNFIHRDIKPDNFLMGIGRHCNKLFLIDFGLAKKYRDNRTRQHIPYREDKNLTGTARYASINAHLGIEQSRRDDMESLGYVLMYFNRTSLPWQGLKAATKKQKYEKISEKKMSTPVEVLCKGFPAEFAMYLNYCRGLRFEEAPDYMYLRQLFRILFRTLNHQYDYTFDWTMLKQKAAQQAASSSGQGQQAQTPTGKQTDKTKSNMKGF
T3 sequence (Q96SW2 whole entry): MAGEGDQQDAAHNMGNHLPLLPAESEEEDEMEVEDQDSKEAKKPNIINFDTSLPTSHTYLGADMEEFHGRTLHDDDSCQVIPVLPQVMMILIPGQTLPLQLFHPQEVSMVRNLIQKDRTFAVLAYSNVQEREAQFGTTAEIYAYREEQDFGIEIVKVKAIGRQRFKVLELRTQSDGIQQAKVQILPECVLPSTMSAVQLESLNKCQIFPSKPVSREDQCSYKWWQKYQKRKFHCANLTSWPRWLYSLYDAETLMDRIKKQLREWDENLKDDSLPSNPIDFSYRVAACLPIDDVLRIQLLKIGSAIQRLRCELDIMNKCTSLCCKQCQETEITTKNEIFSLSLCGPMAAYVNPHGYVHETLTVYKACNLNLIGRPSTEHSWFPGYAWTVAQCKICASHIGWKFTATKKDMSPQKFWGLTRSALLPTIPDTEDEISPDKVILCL
T3 sequence (Q16531 whole entry partner): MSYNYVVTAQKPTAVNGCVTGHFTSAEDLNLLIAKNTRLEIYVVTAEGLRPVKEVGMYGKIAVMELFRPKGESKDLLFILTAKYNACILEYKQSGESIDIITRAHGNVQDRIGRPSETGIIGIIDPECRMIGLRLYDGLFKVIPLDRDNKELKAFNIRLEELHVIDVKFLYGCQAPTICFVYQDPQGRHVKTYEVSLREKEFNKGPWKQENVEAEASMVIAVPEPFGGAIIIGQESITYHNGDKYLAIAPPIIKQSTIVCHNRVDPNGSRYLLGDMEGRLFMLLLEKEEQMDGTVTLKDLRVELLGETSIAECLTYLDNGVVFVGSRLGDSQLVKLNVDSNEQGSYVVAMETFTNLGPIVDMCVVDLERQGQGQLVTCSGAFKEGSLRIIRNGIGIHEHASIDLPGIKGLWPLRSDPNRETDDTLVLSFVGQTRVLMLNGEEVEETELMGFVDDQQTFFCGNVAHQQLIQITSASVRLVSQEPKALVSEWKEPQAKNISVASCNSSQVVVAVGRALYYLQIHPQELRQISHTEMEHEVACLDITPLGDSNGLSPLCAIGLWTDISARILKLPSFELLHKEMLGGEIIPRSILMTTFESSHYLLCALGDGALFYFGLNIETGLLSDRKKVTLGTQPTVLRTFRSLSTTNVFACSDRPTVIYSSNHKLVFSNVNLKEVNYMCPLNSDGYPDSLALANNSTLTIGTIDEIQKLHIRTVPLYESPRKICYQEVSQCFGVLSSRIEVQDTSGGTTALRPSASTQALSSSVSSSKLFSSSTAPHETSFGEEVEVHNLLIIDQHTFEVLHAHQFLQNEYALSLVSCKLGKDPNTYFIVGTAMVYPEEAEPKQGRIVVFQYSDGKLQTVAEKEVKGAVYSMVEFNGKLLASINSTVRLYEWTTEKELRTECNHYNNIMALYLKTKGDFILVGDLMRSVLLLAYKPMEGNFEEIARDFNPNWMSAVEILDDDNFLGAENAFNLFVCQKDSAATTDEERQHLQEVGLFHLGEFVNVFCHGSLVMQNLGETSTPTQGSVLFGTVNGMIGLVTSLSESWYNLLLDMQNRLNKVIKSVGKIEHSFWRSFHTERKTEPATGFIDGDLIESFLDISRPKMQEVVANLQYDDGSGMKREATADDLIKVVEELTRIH
T5 sequence (P30291 whole entry): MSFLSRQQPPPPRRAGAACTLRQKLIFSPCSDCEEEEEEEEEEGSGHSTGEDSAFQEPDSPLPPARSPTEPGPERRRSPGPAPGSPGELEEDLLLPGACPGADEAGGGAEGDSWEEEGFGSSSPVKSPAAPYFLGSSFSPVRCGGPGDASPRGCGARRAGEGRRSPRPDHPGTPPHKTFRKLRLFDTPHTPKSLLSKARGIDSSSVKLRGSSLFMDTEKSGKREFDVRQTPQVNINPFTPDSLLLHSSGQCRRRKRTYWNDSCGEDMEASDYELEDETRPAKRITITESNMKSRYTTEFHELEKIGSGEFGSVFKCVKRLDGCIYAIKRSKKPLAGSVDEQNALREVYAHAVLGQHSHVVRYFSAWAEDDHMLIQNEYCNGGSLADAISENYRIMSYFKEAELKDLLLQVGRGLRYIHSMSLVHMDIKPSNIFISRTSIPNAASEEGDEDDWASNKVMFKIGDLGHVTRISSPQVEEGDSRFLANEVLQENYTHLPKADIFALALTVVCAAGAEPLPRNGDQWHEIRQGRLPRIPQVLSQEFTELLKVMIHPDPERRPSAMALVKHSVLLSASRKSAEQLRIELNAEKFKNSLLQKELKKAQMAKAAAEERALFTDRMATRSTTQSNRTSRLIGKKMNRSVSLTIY
T5 sequence (Q96SW2 whole entry): as the sequence (Q96SW2 whole entry) above
T5 sequence (Q16531 whole entry partner): as the sequence (Q16531 whole entry partner) above
T1 sequence (Q9UKT9 whole entry): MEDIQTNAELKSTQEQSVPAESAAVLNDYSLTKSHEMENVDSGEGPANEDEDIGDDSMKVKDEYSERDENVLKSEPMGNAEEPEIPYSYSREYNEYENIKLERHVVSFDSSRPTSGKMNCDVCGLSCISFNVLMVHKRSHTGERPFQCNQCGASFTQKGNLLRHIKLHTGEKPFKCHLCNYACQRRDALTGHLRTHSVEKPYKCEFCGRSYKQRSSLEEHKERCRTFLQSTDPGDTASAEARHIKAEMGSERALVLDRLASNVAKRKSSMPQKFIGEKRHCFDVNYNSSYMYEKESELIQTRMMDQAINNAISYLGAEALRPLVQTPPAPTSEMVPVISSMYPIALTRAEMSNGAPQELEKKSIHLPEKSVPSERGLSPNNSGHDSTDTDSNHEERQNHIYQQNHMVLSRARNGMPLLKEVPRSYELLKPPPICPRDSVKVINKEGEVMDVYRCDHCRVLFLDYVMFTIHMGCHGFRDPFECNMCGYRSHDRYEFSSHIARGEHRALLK
T1 sequence (Q96SW2 whole entry): as the sequence (Q96SW2 whole entry) above
T1 sequence (Q16531 whole entry partner): as the sequence (Q16531 whole entry partner) above
T2 sequence (Q13422 whole entry): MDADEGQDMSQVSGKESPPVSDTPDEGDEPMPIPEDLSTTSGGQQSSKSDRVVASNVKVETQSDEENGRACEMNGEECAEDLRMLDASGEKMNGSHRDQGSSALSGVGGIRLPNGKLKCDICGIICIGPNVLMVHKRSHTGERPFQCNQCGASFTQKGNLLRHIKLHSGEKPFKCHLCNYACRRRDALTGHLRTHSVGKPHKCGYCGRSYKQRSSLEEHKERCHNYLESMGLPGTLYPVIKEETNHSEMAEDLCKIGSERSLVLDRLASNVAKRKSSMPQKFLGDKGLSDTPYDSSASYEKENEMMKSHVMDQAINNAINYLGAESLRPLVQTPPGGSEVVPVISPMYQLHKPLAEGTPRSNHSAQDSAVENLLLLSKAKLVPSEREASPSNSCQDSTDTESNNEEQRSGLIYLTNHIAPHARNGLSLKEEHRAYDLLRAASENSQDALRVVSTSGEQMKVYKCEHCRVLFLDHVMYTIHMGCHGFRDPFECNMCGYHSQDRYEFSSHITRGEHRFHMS
T2 sequence (Q96SW2 whole entry): as the sequence (Q96SW2 whole entry) above
T2 sequence (Q16531 whole entry partner): as the sequence (Q16531 whole entry partner) above
T6 sequence (Q96SW2 whole entry): as the sequence (Q96SW2 whole entry) above
T4 sequence (Q9UKS7 whole entry): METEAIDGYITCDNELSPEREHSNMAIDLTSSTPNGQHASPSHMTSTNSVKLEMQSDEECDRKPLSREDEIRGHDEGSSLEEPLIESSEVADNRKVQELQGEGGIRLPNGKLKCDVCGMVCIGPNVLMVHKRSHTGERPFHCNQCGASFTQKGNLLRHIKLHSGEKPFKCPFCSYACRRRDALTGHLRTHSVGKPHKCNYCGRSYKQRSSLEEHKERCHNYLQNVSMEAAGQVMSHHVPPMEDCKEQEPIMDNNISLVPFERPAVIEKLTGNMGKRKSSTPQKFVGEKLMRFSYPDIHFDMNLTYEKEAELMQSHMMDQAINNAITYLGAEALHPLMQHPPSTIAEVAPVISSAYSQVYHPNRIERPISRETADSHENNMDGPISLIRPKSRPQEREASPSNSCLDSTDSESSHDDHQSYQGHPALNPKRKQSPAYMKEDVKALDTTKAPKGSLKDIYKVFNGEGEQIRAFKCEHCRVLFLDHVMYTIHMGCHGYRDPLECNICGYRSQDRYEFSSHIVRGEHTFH
T4 sequence (Q96SW2 whole entry): as the sequence (Q96SW2 whole entry) above
T4 sequence (Q16531 whole entry partner): as the sequence (Q16531 whole entry partner) above

inhibition at 0.5 µM [4]: 60 to 80%
inhibition at 2 µM [4]: 80 to 100%
SMILES: Cc1nc(C2=CCN(Cc3ccc4c(c3)CN(C3CCC(=O)NC3=O)C4=S)CC2)c2ccsc2n1 (centres unmarked) [GT-09322, 3-(5-((4-(2-methylthieno[2,3-d]pyrimidin-4-yl)-3,6-dihydropyridin-1(2H)-yl)methyl)-1-thioxoisoindolin-2-yl)piperidine-2,6-dione]
inhibition at 0.01 µM [1]: 5 to 10%
inhibition at 0.5 µM [1]: 80 to 100%
IKZF3 substrate protein remaining % (IKZF3): B (80%< substrate protein remaining %≤ 100%)
IKZF 1 substrate protein remaining % (IKZF1): A (0% ≤ substrate protein remaining % ≤ 80%)
CK1α substrate protein remaining % (CK1α): B (80%< substrate protein remaining %≤ 100%)
IKZF2 substrate protein remaining % (IKZF2): B (80%< substrate protein remaining %≤ 100%)
Wee1 substrate protein remaining % (WEE1): A (0% ≤ substrate protein remaining % ≤ 80%)
inhibition at 0.01 µM [2]: 10 to 20%
inhibition at 0.5 µM [2]: 80 to 100%
inhibition at 0.01 µM [3]: 10 to 20%
inhibition at 0.5 µM [3]: 80 to 100%
GSPT1 substrate protein remaining % (GSPT1): A (0% ≤ substrate protein remaining % ≤ 80%)

inhibition at 0.5 µM [4]: 60 to 80%
inhibition at 2 µM [4]: 80 to 100%
SMILES: O=C1CCC(N2Cc3cc(CN4CC=C(c5ncnc6sc7c(c56)CCCC7)CC4)ccc3C2=S)C(=O)N1 (centres unmarked) [GT-09324, 3-(5-((4-(5,6,7,8-tetrahydrobenzo[4,5]thieno[2,3-d]pyrimidin-4-yl)-3,6-dihydropyridin-1(2H)-yl)methyl)-1-thioxoisoindolin-2-yl)piperidine-2,6-dione]
inhibition at 0.01 µM [1]: 20 to 30%
inhibition at 0.5 µM [1]: 80 to 100%
IKZF3 substrate protein remaining % (IKZF3): B (80%< substrate protein remaining %≤ 100%)
IKZF 1 substrate protein remaining % (IKZF1): B (80%< substrate protein remaining %≤ 100%)
CK1α substrate protein remaining % (CK1α): B (80%< substrate protein remaining %≤ 100%)
IKZF2 substrate protein remaining % (IKZF2): B (80%< substrate protein remaining %≤ 100%)
Wee1 substrate protein remaining % (WEE1): A (0% ≤ substrate protein remaining % ≤ 80%)
inhibition at 0.01 µM [2]: 30 to 40%
inhibition at 0.5 µM [2]: 80 to 100%
inhibition at 0.01 µM [3]: 10 to 20%
inhibition at 0.5 µM [3]: 80 to 100%
GSPT1 substrate protein remaining % (GSPT1): A (0% ≤ substrate protein remaining % ≤ 80%)

SMILES: O=C1CCC(N2Cc3cc(CN4CC=C(c5ncnc6sccc56)CC4)ccc3C2=S)C(=O)N1 (centres unmarked) [GT-09314, 3-(5-((4-(thieno[2,3-d]pyrimidin-4-yl)-3,6-dihydropyridin-1(2H)-yl)methyl)-1-thioxoisoindolin-2-yl)piperidine-2,6-dione]
inhibition at 0.01 µM [1]: 10 to 20%
inhibition at 0.5 µM [1]: 80 to 100%
IKZF3 substrate protein remaining % (IKZF3): A (0% ≤ substrate protein remaining % ≤ 80%)
IKZF 1 substrate protein remaining % (IKZF1): A (0% ≤ substrate protein remaining % ≤ 80%)
CK1α substrate protein remaining % (CK1α): B (80%< substrate protein remaining %≤ 100%)
IKZF2 substrate protein remaining % (IKZF2): B (80%< substrate protein remaining %≤ 100%)
Wee1 substrate protein remaining % (WEE1): A (0% ≤ substrate protein remaining % ≤ 80%)
inhibition at 0.01 µM [2]: 5 to 10%
inhibition at 0.5 µM [2]: 40 to 50%
inhibition at 0.01 µM [3]: 5 to 10%
inhibition at 0.5 µM [3]: 80 to 100%
inhibition at 0.5 µM [4]: 80 to 100%
inhibition at 2 µM [4]: 80 to 100%
GSPT1 substrate protein remaining % (GSPT1): A (0% ≤ substrate protein remaining % ≤ 80%)

SMILES: O=C1CCC(N2Cc3cc(CN4CC=C(c5ncc6ccsc6n5)CC4)ccc3C2=S)C(=O)N1 (centres unmarked) [GT-09327, 3-(5-((4-(thieno[2,3-d]pyrimidin-2-yl)-3,6-dihydropyridin-1(2H)-yl)methyl)-1-thioxoisoindolin-2-yl)piperidine-2,6-dione]
inhibition at 0.01 µM [1]: 30 to 40%
inhibition at 0.5 µM [1]: 80 to 100%
IKZF3 substrate protein remaining % (IKZF3): B (80%< substrate protein remaining %≤ 100%)
IKZF 1 substrate protein remaining % (IKZF1): B (80%< substrate protein remaining %≤ 100%)
CK1α substrate protein remaining % (CK1α): B (80%< substrate protein remaining %≤ 100%)
IKZF2 substrate protein remaining % (IKZF2): A (0% ≤ substrate protein remaining % ≤ 80%)
Wee1 substrate protein remaining % (WEE1): A (0% ≤ substrate protein remaining % ≤ 80%)
inhibition at 0.01 µM [2]: 20 to 30%
inhibition at 0.5 µM [2]: 80 to 100%
inhibition at 0.01 µM [3]: 20 to 30%
inhibition at 0.5 µM [3]: 80 to 100%
inhibition at 0.5 µM [4]: 60 to 80%
inhibition at 2 µM [4]: 80 to 100%
GSPT1 substrate protein remaining % (GSPT1): A (0% ≤ substrate protein remaining % ≤ 80%)
